73 substances from article PMC4865845, “A human genome-wide loss-of-function screen identifies effective chikungunya antiviral drugs” (Nature Communications, 2016) can be followed below.

For this data set, the system named is CHIKV. Format: cell-based, chikungunya virus.

In turn, “Hs_CIZ1_2 (sense CAGCATGGAAGAGATTCAGAA; chemistry not given here) [reference compound]” gave a Score_si2 of -1.05. Consider “s49212 (sense GATCGTTCCTGGGTGTTCA; chemistry not given here)”, for which the Score_si2 is on record as 0.94. Take “s19090 (sense GGATCTGACTATTCGCACT; chemistry not given here) [reference compound]”: the Score_si4 came out at 0.04. The substance “s15798 (GAATTACGGAGATATAGAA; chemistry not given here)” had a Score_si2 of 1.46.

The substance “Hs_MRPS12_2 (CTGCTGGGACAAGACACTGTA; chemistry not given here)” came in with a Score_si2 of 1.92. “Hs_LOXL2_1 (sense CCGGAGTTGCCTGCTCAGAAA; chemistry not given here)” returned a Score_si2 of 1.33.

Turning to “Hs_ODZ3_1 (CCGGGCTGTGTCAAAGAATAA; chemistry not given here)”, the Score_si1 is 1.47. The substance “s195061 (sense CTGTATGGCTTCTATATAA; chemistry not given here)” gave a Score_si4 of 1.03. For the substance “Hs_CCNF_2 (sense AACCCAAGCGTTGGAACTGTA; chemistry not given here)”, the Score_si1 stood at 2.05. For “Hs_PDLIM5_6 (TCCGATGTGCGCCCATTGTAA; chemistry not given here)”, the Score_si3 amounted to 0.87. As to “Hs_CSNK1A1_3 (sense AAGAACTTAATTTCAGTATAA; chemistry not given here)”, the Score_si3 is recorded as 1.65. In turn, “Hs_ANKRD9_1 (AAGAGAGGTATGGGACCTGAA; chemistry not given here)” gave a Score_si1 of 2.5. “s9719 (GGTCTATGATTGACAAGTA; chemistry not given here)” returned a Score_si1 of 1.65. The substance “Hs_LOC283377_3 (sense CAGGCCTTTCTCAGACTGTAT; chemistry not given here)” gave a Score_si1 of 2.72. In turn, “Hs_KAZALD1_1 (sense CCGGAGGAGCTGCTTTCTGAA; chemistry not given here)” came in with a Score_si2 of 1.12. Substance “Hs_NRD1_1 (CAGGGTGAAGCCACTTCATTA; chemistry not given here)” gave a Score_si3 of 1.32. As to “s195938 (sense ATTTATCTCTGCATCGACA; chemistry not given here) [reference compound]”, the Score_si3 is on record as -0.51.

In turn, “Hs_ROCK1_3 (sense CAGATAAAGATCACACTGTTA; chemistry not given here)” came in with a Score_si3 of 0.95. Regarding “s13806 (sense TCATCACCGTGTCCAATCA; chemistry not given here)”, the Score_si2 came to 1.6. The substance “s8322 (GGTCGGAGATTTGCAAGGA; chemistry not given here)” registered a Score_si3 of 1.44. “Hs_SLC6A19_4 (sense CCAGAAGATCTCCTACCCGAA; chemistry not given here)” returned a Score_si2 of 0.84. For “s38294 (GGGTCCTGTTCATAAAGGA; chemistry not given here)”, the Score_si4 was found to be 1.14. Regarding “Hs_ZA20D1_1 (AAGGAGGTTCTCAGTCAATAA; chemistry not given here)”, the Score_si2 came to 1.25.

For “s38293 (GTAACAACAAATACTCATA; chemistry not given here)”, the Score_si2 was 1.65.

As for “Hs_FLJ31164_3 (sense GAAGCTGTTGATAGTATTGAA; chemistry not given here)”, the Score_si1 is 1.5. As for “Hs_BCHE_3 (CAGGAGTGAGTGAGTTTGGAA; chemistry not given here)”, the Score_si3 is given as 0.6. In turn, “s17187 (GGATTGACCTCACCCAGAA; chemistry not given here)” returned a Score_si1 of 2.03.

“s7005 (sense AGAAAAATCTCAAGGAAAA; chemistry not given here)” yielded a Score_si3 of 1.86.

For “Hs_POLDIP3_2 (CCGGCTCAAACTGGGAGTCAA; chemistry not given here)”, the Score_si1 was 2.49.

On to “s17000 (GATGAAAGGTTACAATCCA; chemistry not given here)”, for which the Score_si3 is listed as 1.29. For “s29268 (GGATGCGAAAGACAGAGTA; chemistry not given here)”, the Score_si2 was determined as 1.55.

The substance “Hs_ATP6AP2_5 (CAAGTGCTACATGATATTTCA; chemistry not given here)” gave a Score_si3 of 0.69. “s32489 (GGAACAAGCTGTGATCCCA; chemistry not given here)” had a Score_si1 of 1.66. On to “s9665 (CTCTCGTCCTTCTAGTAAA; chemistry not given here) [reference compound]”, for which the Score_si3 is given as -0.95. As to “Hs_FTSJ2_1 (sense CAGAGGAATTCCAGAATGTAA; chemistry not given here)”, the Score_si2 is 1.91. Regarding “Hs_PEX19_3 (CCCATTCAAGATTGTGCCATA; chemistry not given here)”, the Score_si4 is 0.41. “s27210 (sense GGTTTTAAACATAACGAAA; chemistry not given here) [reference compound]” came in with a Score_si3 of -0.32.

On to “Hs_COPG_2 (sense CAGGAAAGGGACATTGTAAAT; chemistry not given here)”, for which the Score_si2 amounted to 2.25.

In turn, “Hs_PHF10_4 (TCCAGGGAAGACAGAAATCAA; chemistry not given here)” returned a Score_si3 of 0.57. On the same count and under the same terms, in the case of “Hs_CAMKK2_4 (sense ACAGAAAGGGCTTGAAATTTA; chemistry not given here)” it was 1.25.

The substance “s20630 (sense GCAAGCTGCTGATCGAGTT; chemistry not given here)” came in with a Score_si4 of 0.85. In turn, “Hs_PDLIM5_3 (AAGAGACGGTTTGGCATTTAT; chemistry not given here)” returned a Score_si1 of 1.17. “s3113 (GGCGAGAGGGTATCAAGTA; chemistry not given here)” had a Score_si4 of 1.79. On the same count and under the same terms, in the case of “Hs_COPS2_4 (sense ATCCATTAATTCTATTCTTGA; chemistry not given here)” it was 1.19. For the substance “Hs_CRSP7_1 (sense TACGGTTAACTTGGACGGGCA; chemistry not given here) [reference compound]”, the Score_si2 is -1.45.

Turning to “Hs_ZBTB24_1 (CTCCAGGAAATTAAATATTTA; chemistry not given here)”, the Score_si2 is 1.74. Turning to “Hs_SCLY_2 (sense CAGAAACTAAATTAACGAATA; chemistry not given here)”, the Score_si4 came out at 1.04.

With “Hs_FTSJ2_2 (sense CAGAATGTAAGGATCATCAAA; chemistry not given here)”, the Score_si3 turned out to be 1.86. Regarding “Hs_PCBP1_2 (TAAGAGTGGAATGTTAATAAA; chemistry not given here)”, the Score_si1 is 1.94.

Turning to “Hs_GUCY1B3_2 (sense ACCTAACATGGTGATCTGCAA; chemistry not given here) [reference compound]”, the Score_si1 was -1.2. The substance “Hs_IQGAP1_3 (sense AAGGCATATCAAGATCGGTTA; chemistry not given here)” came in with a Score_si4 of 0.77.

As to “s12382 (sense GATCCGAGCTAAAATCCCA; chemistry not given here)”, the Score_si2 was 1.86.

Substance “Hs_RORC_2 (sense TAGGATGTGCCGGGCCTACAA; chemistry not given here)” returned a Score_si1 of 1.28. “Hs_MAP3K14_5 (CACATGCATGTGACTCCTCAA; chemistry not given here)” showed a Score_si4 of 0.74.

“s10394 (GCTTTATGCTGCTAAGGCA; chemistry not given here)” came in with a Score_si4 of 1.23. “Hs_MGC2803_1 (TGCGATGTACATAACTATTTA; chemistry not given here)” returned a Score_si4 of -0.65. “Hs_LOXL2_3 (sense CAGGCAATGAGAAGTCCATTA; chemistry not given here)” came in with a Score_si1 of 2.38.

Turning to “Hs_NDUFA7_1 (CAGGGAGAATGTGACCTAATT; chemistry not given here) [reference compound]”, the Score_si1 is recorded as -2.23.

“Hs_LOC407835_6 (sense CTGCTGGACTATATTGTGAAA; chemistry not given here)”: the Score_si3 is on record as 0.74. “Hs_ATF1_8 (CTGCATCAGGAGATATGCAAA; chemistry not given here) [reference compound]” gave a Score_si1 of -1.45.

On to “Hs_ADPRHL1_1 (CCCGACAATTATGATGCAGAA; chemistry not given here) [reference compound]”, for which the Score_si1 was -2.15.

Take “s31193 (GGAATGATGTCGTCAGTAA; chemistry not given here)”: the Score_si4 is 1.58. With “Hs_AOF2_3 (ACGAGTTGCCACATTTCGCAA; chemistry not given here)”, the Score_si3 stood at 1.26. “s20508 (sense CACTTGAGGAGTTACTGAA; chemistry not given here) [reference compound]” displayed a Score_si4 of -0.76. “Hs_CSNK1A1_5 (sense AGGGCTAAAGGCTGCAACAAA; chemistry not given here)”: the Score_si1 was found to be 2.25. The substance “Hs_CAMKK2_7 (sense CTAGCTGATTGTTGTGGTCAA; chemistry not given here)” showed a Score_si2 of 1.31.

For the substance “s18704 (sense GCAGATTATTTGCAAGCGA; chemistry not given here) [reference compound]”, the Score_si3 is given as -0.73. For “s8542 (AGGTTTTAACGATTTGTTT; chemistry not given here)”, the Score_si2 is on record as 0.14.

As for “Hs_YEATS4_1 (AAGGGTGTTACTATCGTTAAA; chemistry not given here)”, the Score_si1 came to 1.23.

“s18239 (CGGTGACTCTTTATGCACA; chemistry not given here)” came in with a Score_si2 of 1.37. “s28992 (GAGCAACTCTGGTCGTGTA; chemistry not given here)”: the Score_si3 was 0.46. Substance “s8005 (sense CCATGACTCCTGACTACCA; chemistry not given here)” gave a Score_si4 of 0.75.

Substance “Hs_TUSC1_2 (ACCGATCATTCTATTATCATT; chemistry not given here) [reference compound]” had a Score_si2 of -1.18.
